SMILES strings stand for the structures. “And” between values parts separate entries of the source, which are not always exact repeats. Equal entries are not always repeated.

These results are taken from patent publication US5990083A, “Multicatalytic protease inhibitors” (Cephalon, Inc., priority 1997, dated 1999).

In the assay the target is T1, human MCP (Homo sapiens, UniProt P28074+Q99436).
T1 construct: Samples of human liver and brain obtained post-mortem were used for isolation and partial purification of MCP; from tissue; host or cells: human liver and brain, post-mortem
The experiment in a line: Determination of IC50 values for MCP inhibitors (chymotrypsin-like or trypsin-like activity of MCP). It counts as biochemical. The note with it: Table 5, first series; enzyme incubated with inhibitor 15 minutes at 37° C. prior to substrate. As to the method: Samples of human liver and brain obtained post-mortem were used for isolation and partial purification of MCP by ion-exchange chromatography, ammonium sulfate precipitation, and gel filtration (e.g., Driscoll and Goldberg, Proc. Natl. Acad. Sci. 86, 787-791 (1989); Yamamoto et al., Biochim, Biophys. Acta 882, 297-304 (1986). For either starting material, tissue was homogenized in 10 volumes of 20 mM Tris-HCl (pH 7.5) containing 20% glycerol. Following centrifugation at 40,000×g for 30 minutes, proteolytic activity of the chymotrypsin-like component of MCP could be detected in the supernatant (see below). The supernatant was fractionated on a DEAE-Sepharose Fast Flow column equilibrated in homogenization buffer. For each liter of supernatant, 250 ml of resin was used. Following sample loading, the column was washed with ^~ 10 volumes homogenization buffer, and proteins were eluted with a linear NaCl gradient of from 0 to 400 mM (21 for 250 ml resin). Fractions were assayed for MCP activity, and the active fractions were pooled and subjected to precipitation with (NH4)2 SO4 at 80% saturation. Precipitated proteins were collected by centrifugation, resuspended in homogenization buffer, and loaded on a Sephacryl S300HR column (500 ml resin volume) that had been standardized using bovine serum albumin (68 kDa). A single peak of MCP activity was eluted with a molecular weight of ^~ 650 kDa. This preparation was free of other measurable proteolytic activities and maintained its MCP activity upon storage at 4° C. for >6 months. This preparation was used for most of the experiments. Further fractionation of the preparation on an hydroxyapatite-Ultrogel column (Yamamoto et al., supra) yielded a more highly purified enzyme, which according to denaturing SDS-polyacrylamide gel electrophoresis was comprised of the expected >10 subunits ranging in Mr from 20 to 35 kDa.
The procedure for MPC isolation described above generated an enzyme complex whose proteolytic activities were latent, but which could be activated by addition of low concentrations (0.02-0.05%) of SDS (Yamamoto et al., supra). The chymotrypsin-like activity was assayed according to the following procedure: in 96 well microtiter plates, human MCP was diluted 4 to 10-fold in homogenization buffer containing 0.04% SDS. A calorimetric substrate MeOSuc-EVKM-para-nitroanilide (methoxysuccinyl-Glu-Val-Lys-Met-pNa), purchased from Bachem Bioscience Inc., King of Prussia, Pennsylvania was added to a final concentration of 100 μM from a stock solution of 10 mM in dimethylsulfoxide. Reaction volumes were 200 μl per well. After incubation for various periods of time at 37° C., the concentration of free pNa was determined on a Biotech EL-340 microplate reader, reading absorption at 490 nm. Protease activity was determined under conditions in which substrate hydrolysis increased linearly with time and the change in absorption was proportional to the concentration of free pNa. Alternatively, a fluorogenic substrate was used, methoxysuccinyl-Phe-Leu-Phe-amidomethylcoumarin (Enzyme Systems Products, Dublin, Calif.), and the change in fluorescence monitored at an excitation of 390 nm, and an emission at 460 nm.
The trypsin-like activity of human MCP was assayed as described above with the following modifications. Reactions were carried out in Tris-glycerol buffer (pH 9.5) supplemented with 1 mM 2-mercaptoethanol, and the substrate was a fluorogenic substrate, Benzyloxycarbonyl--Phe--Arg--AMC (100 μM).
After incubation for various periods of time at 37° C., the concentration of free AMC was determined on a Fluoroskan II spectrofluorimeter with an excitation filter of 390 nm and an emission filter of 460 nm. Protease activity was determined under conditions in which substrate hydrolysis increased linearly with time and the change in fluorescence was proportional to the concentration of free AMC. […]

Consider `CC(C)C[C@@H](C=O)NC(=O)[C@H](CCCNC(=N)N[N+](=O)[O-])NC(=O)C(CCCCCCCCC#N)C1CCCC1` (stereo partly drawn) [Compound 14, 10-cyano-2-cyclopentyldecanoyl-N^g-nitro-L-arginyl-L-leucinal], for which the IC50 (in general, the concentration that inhibits the measured activity by half) is 7 nM and 6 nM.

Compound `COC(=O)CCCCCCCC(C(=O)N[C@@H](CCCNC(=N)NS(=O)(=O)c1c(C)c(C)c2c(c1C)CCC(C)(C)O2)C(=O)N[C@H](C=O)CC(C)C)C1CCCC1` (stereo partly drawn) [Compound 20, 9-Methoxycarbonyl-2-cyclopentyl-nonanoyl-N^g-(2,2,5,7,8-pentamethylchroman-6-sulfonyl)-L-arginyl-L-leucinal] showed an IC50 of 10 nM.
